Results on one compound are retold here after patent EP4640678A1, “NOVEL OXO-PYRIDINE COMPOUND, PREPARATION METHOD THEREFOR, AND USE THEREOF” (Chengdu Shibeikang Biomedical Technology Co., Ltd., priority 2022, dated 2024).

A short description of data set [1]: Study of pharmacokinetics in rats. It counts as in vivo. Conditions: rat, po; male SD rats, intragastrical gavage, 30 mg/kg, plasma. Here is the method:
Each group was administered via intragastrical gavage at a dose of 30 mg/kg.
About 0.5 mL of blood was collected, placed in an EDTA-K2 tube, centrifuged to separate plasma, and stored at -80°C. The drug plasma concentration was measured using a liquid chromatography-tandem mass spectrometry analysis system (LC-MS/MS), and pharmacokinetic parameters, such as AUC0-t, Cmax, Tmax and t1/2, were calculated based on the drug plasma concentration data using DAS 2.0 software.

Data set [2] is described as follows: Effect of continuous in-vivo administration on general condition and food intake of rats. The conditions noted are these: 500 mg/kg PO once a day for 14 days, within 24 hours after the last administration. The text has this: Each group had 10 rats, equally distributed by gender. The rats received drug administrations via oral gavage once a day for 14 consecutive days, following the administration regimen outlined in the table below. The blank group was given an equal volume of a vehicle. […] Table 4 Continuous administration regimen

The target of another data set is human FXla (Homo sapiens, UniProt P03951). Briefly: Activity assay of coagulation factor FXla inhibitor (S-2366 substrate, OD405nm). Format: biochemical. The conditions noted are these: 5 concentrations 200 nM to 0.32 nM, 0.8 nM (2X) human FXla working solution. The text has this: X: log value of compound concentration; Y: inhibition rate (%).
Sequence of human FXla (P03951 388-625 limits assumed): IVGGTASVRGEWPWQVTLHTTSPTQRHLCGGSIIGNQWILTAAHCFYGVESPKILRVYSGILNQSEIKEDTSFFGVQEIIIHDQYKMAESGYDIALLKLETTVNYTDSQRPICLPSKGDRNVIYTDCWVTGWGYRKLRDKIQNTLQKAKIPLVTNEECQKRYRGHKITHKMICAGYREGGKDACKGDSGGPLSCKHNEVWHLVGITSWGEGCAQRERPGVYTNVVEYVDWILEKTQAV
Sequence of human FXla (P03951 19-387 partner limits assumed): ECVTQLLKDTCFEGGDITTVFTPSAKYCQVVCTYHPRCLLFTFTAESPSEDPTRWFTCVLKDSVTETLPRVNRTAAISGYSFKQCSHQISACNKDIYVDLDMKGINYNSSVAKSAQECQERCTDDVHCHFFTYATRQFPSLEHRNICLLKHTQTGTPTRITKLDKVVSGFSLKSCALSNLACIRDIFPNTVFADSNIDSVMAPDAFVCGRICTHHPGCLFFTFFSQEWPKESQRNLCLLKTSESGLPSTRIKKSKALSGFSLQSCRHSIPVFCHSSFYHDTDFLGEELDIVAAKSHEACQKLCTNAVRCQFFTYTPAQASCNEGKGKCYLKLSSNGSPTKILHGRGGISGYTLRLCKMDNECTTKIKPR
The next data set deals with human plasma. Briefly: determination of in-vitro anticoagulant effect in human plasma (APTT). Format: biochemical. The conditions noted are these: for APTT prolongation rate (%): healthy human plasma, 37°C for 3 min. The method, then: After centrifugation, the plasma sample was pipetted and frozen (-80°C) for later use.
A proper amount of a compound was weighed and prepared into a 10-100 mM stock solution using 100% of DMSO (the specific concentration of the stock solution was determined based on the properties of the compound); and then working solutions with various concentrations (specifically: 1 µM, 3 µM and 10 µM, respectively) were prepared from the stock solution using the healthy human plasma as a solution and thoroughly mixed. After incubation at 37°C for 3 min, the sample was placed on an instrument (model: CS-2000I) to determine APTT.
GraphPad Prism software was used for analysis to calculate the APTT prolongation rate at each concentration.

Each structure is given as a SMILES string. pIC50: −log10 of the molar value.

For the compound `[2H]C([2H])([2H])NC(=O)c1ccc(NC(=O)[C@H](CC)n2cc(OC([2H])([2H])[2H])c(-c3cc(Cl)ccc3-n3cc(C(F)(F)F)nn3)cc2=O)cc1F` [Compound 27, (S)-4-(2-(4-(5-chloro-2-(4-(trifluoromethyl)-1H-1,2,3-triazol-1-yl)phenyl)-5-(methoxy-d3)-2-oxopyridin-1(2H)-yl)butanamido)-2-fluoro-N-(methyl-d3)benzamide], in data set [1], the AUC(0-t) (commonly exposure summed from dosing to a finite time, without extrapolation to infinity) stood at 291 µg·h/mL; the Cmax (usually the maximum level reached in the sampled fluid or tissue) was 27200 ng/mL; the Tmax (commonly the time at which the peak concentration occurs) was found to be 4.43 h; the half-life (in general, the time in which the quantity being followed falls by half) is 4.01 h. Also, the “Food intake (g, mean±SD)” value in data set [2] came to 27.08 ± 1.19 g. Further, in data set [2] (SD rats), the “food intake compared with the blank group” value is reported as “essentially the same food intake as the blank group”. The negative-log IC50 (pIC50) – broadly, −log10 of the IC50, conventionally taken in molar units – against human FXla is 8.53. In addition, in the data set with human plasma (3 µM), the “APTT prolongation rate (%)” value stood at 79.7%. Moreover, in the data set on human plasma (10 µM), the “APTT prolongation rate (%)” value came out at 142.5%. For the same compound, the EC150 entry in the data set on human plasma (estimated from the APTT test results in human plasma) is “less than 1 µM”.
